{"source": "paper PMC7179167", "about": "(Molecules, 2020)", "key": {"[1]": {"system": "normal skin fibroblast cells (BJ-1)", "test": "MTT cytotoxicity assay, normal skin fibroblast BJ-1", "type": "cell-based", "details": "Homo sapiens, 48 h, read-out: Growth Inhibition (%) BJ-1", "description": "(§3) MCF-7 (human breast cancer), HCT-116 (human colon cancer) and HepG2 (human liver cancer) cell lines were obtained from Karolinska Institute, Stockholm, Sweden. All cells were maintained in RPMI 1640 medium. The media were supplemented with 10% heat-inactivated fetal bovine serum plus 1% antibiotic-antimycoticmixture (10,000 U/mL of potassium penicillin, 10,000 μg/mL of streptomycin sulfate, 25 μg/mL of amphotericin B and 1% of L glutamine (Biowest, USA)). BJ-1 of a human skin fibroblast derived from normal foreskin was obtained from ATCC® CRL-2522™ as a frozen ampoule with about 1 × 10^6 cells per 1 ml volume. BJ-1 was maintained in MEM with 2 mM of L-glutamine and Earle’s salts medium.\n(§4) Cell viability was studied using the MTT 3-(4,5-dimethylthiazol-2-yl)-2,5-diphenyl-tetrazolium bromide (Bio Basic Canada Inc. Toronto, Canada) assay [33]. The steps were executed in a sterile laminar air flow cabinet biosafety class II level (Baker, SG403INT; Sanford, ME, USA). All incubations were carried out at 37 °C in a 5% CO2 incubator under a humidified atmosphere of 95% (Sheldon, TC2323; Cornelius, OR, USA). Cells were seeded into 96-well microtiter plastic plates at a concentration of (10^4 cells/well) and allowed to adhere for 24 h. The medium was aspirated and then added to the cells with the test compounds 11a–c, 12a–c, 13a–i, 14a–i and 15a,b at a single dose of 100 μg/mL in DMSO. After incubation of the medium for 48 h, 40 μL of MTT salt (2.5 μg/mL) was added to each well and then incubated for an additional 4 h. To stop the reaction and dissolve any formed formazan crystals, 200 μL of 10% sodium dodecyl sulfate (SDS) were added to each well and incubated overnight at 37 °C. The amount of formazan product was measured at 595 nm with a reference wavelength of 690 nm as a background using a microplate reader (Bio-Rad Laboratories, model 3350, California, USA). For the untreated cells (negative control), the medium was added instead of the tested compounds. […] Dimethylsulfoxide (DMSO) was the vehicle used for dissolution of the testing compound, and its final concentration on the cells was less than 0.2%. At the same dilution, the solvent concentration was the same for all drugs and between the control and drug treatments."}, "[2]": {"system": "S. cerevisiae (ATCC 9080)", "test": "Disk diffusion antimicrobial test, S. cerevisiae", "type": "cell-based", "details": "Saccharomyces cerevisiae, ATCC9080, yeast, 20 mg per disc (title), concentration 20 µg (footnote)", "protocol": "(§1) The newly synthesized compounds were chosen to be evaluated in vitro towards a variety of pathogenic microorganisms; Gram-positive bacteria: S. aureus (ATCC 6538) and B. subtilis (ATCC 6633); Gram-negative bacteria: P. areuginosa (ATCC 27853) and E. coli (DSMZ 1058); yeast: C. albicans (ATCC 10231) and S. cerevisiae (ATCC 9080) and fungi: A. niger (NRRL A-326) using the disk diffusion method at a single dose of 20 µl. The results are shown in Table 1 as the growth inhibition zone (mm).\n(§2) The antimicrobial activity of target compounds were evaluated to be in vitro against a variety of pathogenic microorganisms, namely Staphylococcus aureus (ATCC 6538), Bacillus subtilis (ATCC 6633) (Gram-positive bacteria), Pseudomonas areuginosa (ATCC 27853), Escherichia coli (DSMZ 1058) (Gram-negative bacteria), Candida albicans (ATCC 10231), Saccharomyces cerevisiae (ATCC 9080) (Yeast) and Aspergillus niger (NRRL A-326) (Fungi) using the disk diffusion method at a single dose of 20 µg. The microorganisms were served and obtained from the Microbial Biotechnology Department, National Research Center, Giza, Egypt. Amphotericin, amoxicillin and ciprofloxacin were used as reference drugs (Oxoid™ Disks). The tested compounds 11a–c, 12a–c, 13a–i, 14a–i and 15a,b were dissolved in dimethylsulphoxide (DMSO) at a concentration of 1 mg/mL. Aliquots of 20 μl were soaked on filter paper discs (6 mm) and dried at room temperature under sterilized conditions. The paper discs were placed on inoculated agar plats and then incubated for 24 h at 37 °C for bacterial strains and after 48–72 h incubation at 30 °C for fungi. Both bacterial and yeast strains were grown on nutrient agar medium (g/l): beef extract, 3; peptone, 10 and agar, 20 at pH of 7.2. The fungal strain was grown on Czapek-Dox medium (g/l): sucrose, 30; NaNO3, 3; MgSO4.7H2O, 0.5l; KCl, 0.5; FeSO4, 0.01; K2HPO4, 1 and agar, 20 at pH of 6.0."}, "[3]": {"system": "MCF-7 (human breast cancer)", "test": "MTT cytotoxicity assay, MCF-7", "type": "cell-based", "details": "for inhibition at 100 µg/mL: MCF7, 100 µg/ml, 48 h, read-out: Growth Inhibition (%) MCF-7; for IC50: MCF7, 48 h post-treatment", "description": "as §3, §4"}, "[4]": {"test": "DPPH free radical scavenging assay", "type": "biochemical", "details": "concentration of 20µg/l, mean ± SD of three experiments", "protocol": "Antioxidant activity of the newly synthesized 13a–i, 14a–i, 11a–c and 12a–c were assessed in terms of hydrogen-donating or radical-scavenging ability via the stable free radical 1,1-diphenyl-2-picrylhydrazyl (DPPH) using ascorbic acid as a reference at a concentration of […].\nThe free radical scavenging activity (RSA) was assessed spectrophotometically at 517 nm via decoloration of the solution of the DPPH (1,1-diphenyl-2-picrylhydrazyl) radical according to Brand-Williams et al. 1995 [32]. DPPH solution was prepared by dissolving of 20 mg of DPPH in one liter of dimethylsulphoxide (DMSO). A freshly prepared DPPH solution was used for the assay. Each of the tested compounds 11a–c, 12a–c, 13a–i, 14a–i and 15a,b were dissolved in DMSO (1mg/mL). A volume of […] of a DMSO stock solution of the test compounds was added to 2 mL of freshly prepared DPPH in DMSO solution. The mixtures were shaken in a vortex (2500 rpm) for 1 min and then left to stand for 15, 30, 45 and 60 min in the dark room. The absorbance was measured at 517 nm against blank using UV visible spectrophotometer 2401 PC (Shimadzu, Kyoto, Japan). Lower absorbance of the reaction mixture indicated higher free radical scavenging activity was analyzed from the graph plots of the inhibition percentage against the compound concentration. The experiment was carried out in triplicate and averaged. The scavenging activity was calculated according to the following formula:Scavenging ability (%) = (A517 of control - A517of sample / A 517 of control) ×100(1)"}, "[5]": {"system": "HCT-116 (human colon cancer)", "test": "MTT cytotoxicity assay, HCT-116", "type": "cell-based", "details": "Homo sapiens; for inhibition at 100 µg/mL: HCT-116, 100 µg/ml, 48 h, read-out: Growth Inhibition (%) HCT-116; for IC50: HCT-116, 48 h, 48 h post-treatment"}, "[6]": {"system": "HepG-2 (human liver cancer)", "test": "MTT cytotoxicity assay, HepG-2", "type": "cell-based", "details": "for inhibition at 100 µg/mL: HepG2, 100 µg/ml, 48 h, read-out: Growth Inhibition (%) HepG-2; for IC50: HepG2, 48 h post-treatment", "description": "as §3, §4"}, "[7]": {"system": "C. albicans (ATCC 10231)", "test": "Disk diffusion antimicrobial test, C. albicans", "type": "cell-based, Candida albicans", "details": "Candida albicans, ATCC10231, disk diffusion; yeast; 20 mg per disc (title), concentration 20 µg (footnote)", "protocol": "as §1, §2"}, "[8]": {"details": "15 min, read-out: Scavenging Activity (%) on DPPH radicals at 15 min"}, "[9]": {"details": "30 min, read-out: Scavenging Activity (%) on DPPH radicals at 30 min"}, "[10]": {"details": "45 min, read-out: Scavenging Activity (%) on DPPH radicals at 45 min"}, "[11]": {"details": "60 min, read-out: Scavenging Activity (%) on DPPH radicals at 60 min"}}, "note": "Where two headings read alike, the source gives them in different places.", "data": [{"smiles": "O=C1Nc2ccccc2C12CC(c1c[nH]c3ccccc13)=NN2", "note": "(stereo not shown) [Compound 13a, 5’-(1H-Indol-3-yl)-2’,4’-dihydrospiro(indoline-3,3’-pyrazol)-2-one]", "values": [{"measurement": "melting point", "value": "318 to 320", "unit": "°C"}, {"measurement": "inhibition at 100 µg/mL", "setting": "[1]", "value": 11.6, "unit": "%"}, {"measurement": "zone of inhibition at 20 µg/disc", "setting": "[2]", "value": 20, "unit": "mm"}, {"measurement": "inhibition at 100 µg/mL", "setting": "[3]", "value": 96.4, "unit": "%"}, {"measurement": "IC50", "setting": "[3]", "value": 32.4, "unit": "µg/mL"}, {"measurement": "inhibition", "setting": "[4]; [8]", "value": "41.1 ± 1.25", "unit": "%"}, {"measurement": "inhibition", "setting": "[4]; [9]", "value": "45.8 ± 1.36", "unit": "%"}, {"measurement": "inhibition", "setting": "[4]; [10]", "value": "56.5 ± 1.99", "unit": "%"}, {"measurement": "inhibition", "setting": "[4]; [11]", "value": "64.1 ± 2.01", "unit": "%"}, {"measurement": "inhibition at 100 µg/mL", "setting": "[5]", "value": 96.9, "unit": "%"}, {"measurement": "IC50", "setting": "[5]", "value": 31.3, "unit": "µg/mL"}, {"measurement": "inhibition at 100 µg/mL", "setting": "[6]", "value": 89.3, "unit": "%"}, {"measurement": "IC50", "setting": "[6]", "value": 60.6, "unit": "µg/mL"}, {"measurement": "zone of inhibition at 20 µg/disc", "setting": "[7]", "value": 18, "unit": "mm"}]}, {"smiles": "CCn1cc(C2=NNC3(C2)C(=O)Nc2ccccc23)c2ccccc21", "note": "(stereo not shown) [Compound 13b, 5’-(N-Ethyl-1H-indol-3-yl)-2’,4’-dihydrospiro(indoline-3,3’-pyrazol)-2-one]", "values": [{"measurement": "melting point", "value": "143 to 145", "unit": "°C"}, {"measurement": "inhibition at 100 µg/mL", "setting": "[1]", "value": 10.4, "unit": "%"}, {"measurement": "zone of inhibition at 20 µg/disc", "setting": "[2]", "value": 18, "unit": "mm"}, {"measurement": "inhibition at 100 µg/mL", "setting": "[3]", "value": 95.4, "unit": "%"}, {"measurement": "IC50", "setting": "[3]", "value": 24, "unit": "µg/mL"}, {"measurement": "inhibition", "setting": "[4]; [8]", "value": "43.5 ± 1.98", "unit": "%"}, {"measurement": "inhibition", "setting": "[4]; [9]", "value": "47 ± 1.81", "unit": "%"}, {"measurement": "inhibition", "setting": "[4]; [10]", "value": "56.3 ± 1.29", "unit": "%"}, {"measurement": "inhibition", "setting": "[4]; [11]", "value": "65.5 ± 1.55", "unit": "%"}, {"measurement": "inhibition at 100 µg/mL", "setting": "[5]", "value": 94.5, "unit": "%"}, {"measurement": "IC50", "setting": "[5]", "value": 21.3, "unit": "µg/mL"}, {"measurement": "inhibition at 100 µg/mL", "setting": "[6]", "value": 81.4, "unit": "%"}, {"measurement": "IC50", "setting": "[6]", "value": 48, "unit": "µg/mL"}, {"measurement": "zone of inhibition at 20 µg/disc", "setting": "[7]", "value": 18, "unit": "mm"}]}, {"smiles": "O=C(c1ccc(Cl)cc1)n1cc(C2=NNC3(C2)C(=O)Nc2ccccc23)c2ccccc21", "note": "(stereo not shown) [Compound 13f, 5’-(N-(4-Chloro-benzoyl)-1H-indol-3-yl)-2’,4’-dihydrospiro(indoline-3,3’-pyrazol)-2-one]", "values": [{"measurement": "melting point", "value": "202 to 204", "unit": "°C"}, {"measurement": "inhibition at 100 µg/mL", "setting": "[1]", "value": 16.4, "unit": "%"}, {"measurement": "inhibition at 100 µg/mL", "setting": "[3]", "value": 79.7, "unit": "%"}, {"measurement": "IC50", "setting": "[3]", "value": 32.1, "unit": "µg/mL"}, {"measurement": "inhibition", "setting": "[4]; [8]", "value": "17.9 ± 1.62", "unit": "%"}, {"measurement": "inhibition", "setting": "[4]; [9]", "value": "28.3 ± 1.61", "unit": "%"}, {"measurement": "inhibition", "setting": "[4]; [10]", "value": "34.3 ± 1.27", "unit": "%"}, {"measurement": "inhibition", "setting": "[4]; [11]", "value": "40.7 ± 1.54", "unit": "%"}, {"measurement": "inhibition at 100 µg/mL", "setting": "[5]", "value": 86.5, "unit": "%"}, {"measurement": "IC50", "setting": "[5]", "value": 28.4, "unit": "µg/mL"}, {"measurement": "inhibition at 100 µg/mL", "setting": "[6]", "value": 72.8, "unit": "%"}, {"measurement": "IC50", "setting": "[6]", "value": 83.6, "unit": "µg/mL"}]}, {"smiles": "O=C1Nc2ccccc2C12CC(c1cn(S(=O)(=O)c3ccc(Br)cc3)c3ccccc13)=NN2", "note": "(stereo not shown) [Compound 13g, 5’-(N-(4-Bromo-benzenesulfonyl)-1H-indol-3-yl)-2’,4’-dihydrospiro(indoline-3,3’-pyrazol)-2-one]", "values": [{"measurement": "melting point", "value": "190 to 192", "unit": "°C"}, {"measurement": "inhibition at 100 µg/mL", "setting": "[1]", "value": 13, "unit": "%"}, {"measurement": "inhibition at 100 µg/mL", "setting": "[3]", "value": 91.6, "unit": "%"}, {"measurement": "IC50", "setting": "[3]", "value": 43, "unit": "µg/mL"}, {"measurement": "inhibition", "setting": "[4]; [8]", "value": "25.9 ± 1.85", "unit": "%"}, {"measurement": "inhibition", "setting": "[4]; [9]", "value": "44 ± 1.46", "unit": "%"}, {"measurement": "inhibition", "setting": "[4]; [10]", "value": "49.2 ± 1.77", "unit": "%"}, {"measurement": "inhibition", "setting": "[4]; [11]", "value": "53.7 ± 1.81", "unit": "%"}, {"measurement": "inhibition at 100 µg/mL", "setting": "[5]", "value": 92.4, "unit": "%"}, {"measurement": "IC50", "setting": "[5]", "value": 35.3, "unit": "µg/mL"}, {"measurement": "inhibition at 100 µg/mL", "setting": "[6]", "value": 81.9, "unit": "%"}, {"measurement": "IC50", "setting": "[6]", "value": 72.2, "unit": "µg/mL"}]}, {"smiles": "O=C1Nc2ccccc2C12CC(c1cn(S(=O)(=O)c3ccc(Cl)cc3)c3ccccc13)=NN2", "note": "(stereo not shown) [Compound 13h, 5’-(N-(4-Chloro-benzensulfonyl)-1H-indol-3-yl)-2’,4’-dihydrospiro(indoline-3,3’-pyrazol)-2-one]", "values": [{"measurement": "melting point", "value": "197 to 199", "unit": "°C"}, {"measurement": "inhibition at 100 µg/mL", "setting": "[1]", "value": 14.1, "unit": "%"}, {"measurement": "inhibition at 100 µg/mL", "setting": "[3]", "value": 93.4, "unit": "%"}, {"measurement": "IC50", "setting": "[3]", "value": 5.8, "unit": "µg/mL"}, {"measurement": "inhibition", "setting": "[4]; [8]", "value": "15.2 ± 1.98", "unit": "%"}, {"measurement": "inhibition", "setting": "[4]; [9]", "value": "16.3 ± 1.96", "unit": "%"}, {"measurement": "inhibition", "setting": "[4]; [10]", "value": "20.6 ± 1.48", "unit": "%"}, {"measurement": "inhibition", "setting": "[4]; [11]", "value": "35.7 ± 1.91", "unit": "%"}, {"measurement": "inhibition at 100 µg/mL", "setting": "[5]", "value": 91.3, "unit": "%"}, {"measurement": "IC50", "setting": "[5]", "value": 20.5, "unit": "µg/mL"}, {"measurement": "inhibition at 100 µg/mL", "setting": "[6]", "value": 79.5, "unit": "%"}, {"measurement": "IC50", "setting": "[6]", "value": 19.2, "unit": "µg/mL"}]}]}
